Reference: patent US20210060125A1, “METHOD AND USE OF PnPP-19 FOR PREVENTING AND TREATING EYE DISEASES” (priority 2019, published 2021)
Entries after “also recorded” stand apart in the source; their conditions may differ.

How the values were obtained:
[1] = tested on: HA-induced glaucoma in rats; settings: cited from earlier work
[2] = tested on: ocular hypertensive rabbits; settings: hypertonic saline into the vitreous body; cited from earlier work
Human glaucoma = settings: cited from earlier work
healthy subjects = assay: Phase 1 clinical trial, safety, tolerability and IOP; format: in vivo, human
Experimental: Twelve healthy subjects, 6 males and 6 females, were selected to evaluate the safety and tolerability of PnPP-19. PnPP-19 were applied as one eye drop per day (with 250 μg of peptide in 50 μL saline (0.5%)) for 7 days, in one eye, while vehicle (the formulation without the peptide) was applied in the contralateral eye. The eye were randomized in a double-blind way to each intervention.
The safety was analyzed by an ophthalmologist thought a slit lamp in conjunction with a biomiscrscope to examine the anterior and posterior segment of the eye. This procedure was performed in both eyes, in each subject, in the days 1, 2, 3, 4 and 7 of the treatment.
The tolerability was analyzed thought a daily tolerability questionnaire. […] One patient reported mild headache, that last minutes.
IOP was measured with a non-contact tonometer before and 1,2,4 6 and 24 hours after the instillations of PnPP-19 or vehicle.

[3] = tested on: male Wistar rats with retinal ischemia; assay: Ischemic retina model, study 2 (pre-treatment or prevention); format: in vivo, rat; settings: pre-treatment; 3 cd.s.m−2, scotopic; n=6
Experimental: The potential neuroprotective effect of PnPP-19 in the retina was investigated with an animal model of ischemic injury. For this purpose, male Wistar rats were treated with PnPP-19 either before or after induction of ischemia (80 μg in 20 μl (one eye drop) once a day administration for seven days).
Male Wistar rats (180-200 g) were anesthetized intraperitoneally with ketamine hydrochloride 90 mg/kg and xylazine hydrochloride 10.0 mg/kg and the retinas were made ischemic according to the protocols of Hughes (HUGHES, W. F. Quantitation of ischemic damage in the rat retina. Exp Eye Res, 53(5): 573-82, 1991), and of Louzada-Junior et al. (Louzada-Junior, P., Dias, J. J., Santos, W. F., Lachat, J. J., Bradford, H. F., Coutinho-Netto, J. Glutamate Release in Experimental Ischaemia of the Retina: An Approach Using Microdialysis. J Neurochem, 59(1):358-63, 1992). IOP was elevated by cannulating the eye anterior chamber, with a sterile 27-gauge needle attached to a manometer/pump connected to an air reservoir (HUGHES, W. F. Quantitation of ischemic damage in the rat retina. Exp Eye Res, 53(5): 573-82, 1991) elevating the IOP to 155 mmHg for 40 min evoking ischemia (indicated by whitening of the eye fundus as blood flow is interrupted). […]
We measured different layer thicknesses to quantify the degree of cell loss to measure the ischemic damage in the rat retina. […]

[4] = tested on: male normotensive Wistar rat eye; assay: Eye permeation and diffusion of fluorescence-labeled PnPP-19; format: in vivo; settings: 80 μg/20 μl eye drop in saline; 3 hours
Experimental: Fluorescence-labeled PnPP-19 (FITC) was applied topically in form of eye drops (peptide dissolved in saline) in a dose of 80 μg/20 μl in the male normotensive Wistar rat eye. Vehicle (saline) was applied in the contralateral eye to be used as control. After 3 hours the eyes were enucleated and prepared for histological analysis using fluorescence microscope APOTOME.2 ZEISS.

[5] = tested on: glaucomatous male Wistar rats; format: in vivo, rat; settings: 72 hours after PnPP-19 instillation
Experimental: The effectiveness of the PnPP-19 was first evaluated by measuring the changes in IOP of glaucomatous male Wistar rats (180-220 g, 7 to 10 weeks old, n=6). Glaucoma was induced in the right eye by the injection of 30 μL hyaluronic acid (HA) (10 mg/mL) into the anterior chamber through the clear cornea once per week for 3 weeks on the same calendar day and at the same time. Evaluation of the IOP was performed using a TonoPen (Tono-PenVet, Reichert). To perform the measurements, unsedated animals were topically anesthetized by the instillation of 0.5% proxymetacaine hydrochloride. Three IOP readings (with SE less than 5%) were taken for each eye. The average of these three readings was considered the corresponding value of the IOP. Electroretinogram (ERG) was recorded before and after the glaucoma induction. Eyes were enucleated and corneas and retinas were prepared for histology. The groups of treatment were defined as Healthy or non-glaucomatous—left eye, where HA was not applied; Glaucomatous, Non-treated—right eye, where HA was applied, treated with control (vehicle, saline); […]
The effects of PnPP-19 on rat's vision at the end of the HA glaucomatous model was analyzed by ERG to evaluate if the peptide impacts the visual acuity. […]

normotensive Wistar rats = assay: In vivo single-dose acute toxicology, topical eye drops; parameters: species or system rat; settings: single topical dose 40, 80, 160 μg in 20 μL
Experimental: Single-dose topical application of PnPP-19 was dissolved in 300 of saline at the dose of 40, 80 and 160 μg, in 20 μL of saline, in the form of eye drops, was evaluated in normotensive Wistar rats (150-200 g), n=4 rats per dose group. Fundoscopy and electroretinography were performed at days 0, 1, 7 and 15 after PnPP-19 administration. At day 15, eye tissue was collected to histopathological analysis. Day 0 was considered as a control time point for any dose to evaluate for observed differences.

[6] = tested on: Hen's egg chorioallantoic membranes (HET-CAM); assay: HET-CAM ocular irritation model; parameters: key to Irritability classification: NI = Non- irritant; SI = severely irritant; settings: for OII ± SD / OII ± SD (mean cumulative score): mean ± S.D., n = 6
Experimental: Hen's egg—chorioallantoic membranes (HET-CAM) were used to assess anti-irritant properties of different concentrations of PnPP-19. PnPP-19 was dissolved in 300 μL of saline in order to achieve the concentration of 40 μg, 80 μg, 160 μg, 320 μg, in 20 μL (the volume of one eye drop). Sodium chloride 0.9% (NaCl) was used as negative control and sodium hydroxide 0.1 M (NaOH) as a positive control.
The reactions were classified according to a semi-quantitatively analysis, on a scale from 0 (no reaction) to 3 (strong reaction). The ocular irritation index (OII) was then calculated by the following expression: […]
where h is time (in seconds) from the beginning of bleeding; l lysis, and c coagulation. The following classification was used: OII≤0.9: […]; 0.9<OII≤4.9: moderately irritant; 4.9<OII≤8.9: irritant; 8.9<OII≤21: severely irritant.

Glaucomatous dogs = settings: cited from earlier work
[7] = daily tolerability questionnaire, n=12
[8] = all concentrations tested (40-320 μg in 20 μL)

CC(C)OC(=O)CCC/C=C\C[C@@H]1[C@@H](CC[C@@H](O)CCc2ccccc2)[C@H](O)C[C@@H]1O [Latanoprost]
Average IOP reduction (%) [1]: 28.1% | effect on ocular hypertension [2]: not | Average IOP reduction (%) (Human glaucoma): 13.1%

Ac-GERRQYFWIAWYKLANSKK-NH2 (N-terminus and C-terminus assumed) [PnPP-19, Gly Glu Arg Arg Gln Tyr Phe Trp Ile Ala Trp Tyr Lys Leu Ala Asn Ser Lys Lys]
Safety, slit lamp examination of anterior and posterior segment (healthy subjects; 250 μg in 50 μL saline (0.5%), one drop per day for 7 days, n=12): no safety finding | Blood pressure, heart rate, weight, physical examination, electrocardiogram (healthy subjects; 250 μg in 50 μL, one drop per day for 7 days, n=12): no difference in blood pressure, heart rate, weight, physical examination and electrocardiogram results | Relation of reported adverse events to treatment (investigator) (healthy subjects; daily tolerability questionnaire, four events reported): none of those adverse events were related to PnPP-19 | Eye burning after instillation (healthy subjects; [7]): in one patient | Puritis in the eye after instillation (healthy subjects; [7]): one patient | ERG b-amp/a-amp ratio [3]: an increasing tendency in b/a ratio; also recorded: prevents vision loss | Fluorescence in cornea, vitreous body and retina vs vehicle [4]: permeates the cornea and reaches the retina | Dark-adapted ERG vs glaucomatous non-treated group [5]: no difference | Histological morphology of cornea and retina (normotensive Wistar rats; day 15, n=4): keeps the same morphology; also recorded: does not alter the retinal morphology; also recorded: does not alter the cornea morphology | Fundoscopy vs day 0 (normotensive Wistar rats; days 1, 7, 15, n=4 per dose): No difference was observed; also recorded: does not affect retinal vessels | Electroretinography a and b wave vs day 0 (normotensive Wistar rats; up to day 15): absence of retinal nerve damage | Irritability classification ([6]; 40 μg in 20 μL saline): NI | OII ± SD ([6]; 40 μg in 20 μL saline): ≤0.9 ± 0.0 | Irritability classification ([6]; 80 μg in 20 μL saline): NI | OII ± SD ([6]; 80 μg in 20 μL saline): ≤0.9 ± 0.0 | Irritability classification ([6]; 160 μg in 20 μL saline): NI | OII ± SD ([6]; 160 μg in 20 μL saline): ≤0.9 ± 0.0 | Irritability classification ([6]; 320 μg in 20 μL saline): NI | OII ± SD ([6]; 320 μg in 20 μL saline): ≤0.9 ± 0.0 | irritancy ranking in words [6, 8]: non-irritant | mean cumulative scores (OII) [6, 8]: ≤ 0.9 | signs of vascular response ([6]; all concentrations tested, observed up to 5 min): did not show any signs of vascular response

CC(C)(C)NC[C@H](O)COc1nsnc1N1CCOCC1 [Timolol]
Average IOP reduction (%) [1]: 25.3% | Average IOP reduction (%) (Human glaucoma): 18%

O=C(CCC/C=C\C[C@@H]1[C@@H](CC[C@@H](O)CCc2ccccc2)[C@H](O)C[C@@H]1O)OCCCCO[N+](=O)[O-] [Latanoprostene Bunod]
reduction in IOP (Glaucomatous dogs): 44% | effect on ocular hypertension [2]: significantly blunted | Average IOP reduction (%) (Human glaucoma): 31%

[Na+].[OH-] [0.1M NaOH, sodium hydroxide, reference compound]
Irritability classification ([6]; 0.1 M, positive control): SI | irritancy ranking in words ([6]; 0.1 M, positive control): severely irritant (8.9<OII≤21: severely irritant) | OII ± SD (mean cumulative score) ([6]; 0.1 M, positive control): 21.11 ± 0.32 | OII ± SD (mean cumulative score) ([6]; 0.1 M, positive control, listed as 0.1 M NaOH): 21.11±0.32

Latanoprost
reduction in IOP (Glaucomatous dogs): 27%
